Data taken from patent US4237273A, “Bis(nitrosoureido)-polyol derivatives” (Richter Gedeon Vegyeszeti Gyar RT, priority 1977, dated 1980).

Experiments:
[1] = system: BDF1 mice; test: Acute toxicity (LD50), 21 days observation; assay type: in vivo; settings: BDF1 mice of both sexes
Protocol: Species: BDF1 mice of both sexes
Treatment: a volume of 0.2 ml./10 g. body weight of a suspension of the tested compounds in water containing 2% of Tween-80 was used.
Number of animals: 10/dose
Observation time: 21 days

[2] = system: L-120 leukemia; test: Antitumour activity, L-1210 leukemia (Table 2); assay type: in vivo, BDF1 mice; settings: from the 2nd day; for Recovery (90 day survival): animals recovered/treated
Protocol: (§1) The leukemia and ascites type tumours were transplanted intraperitoneally, using an amount of 10^5 -10^7 cells, while in the case of solid tumours, small pieces of tumours were implanted subcutaneously with a trocar. Treatment:
(§2) Mice were treated with a volume of 0.1 ml./10 g. body-weight of a suspension of the tested compounds in water containing 2% of Tween-80, while rats were treated with a volume of 0.1 ml./100 g. bodyweight of a suspension of the tested compounds in water containing 5% of Tween-80.
(§3) The ascites and leukemia-type tumours were evaluated with the exception of the Rausher leukemia by the increase of the life span and by complete recovery. [formula]
(§4) Recovery=90 days of tumour free life after transplantation.

[3] = system: P-388 leukemia; test: Antitumour activity, P-388 leukemia (Table 2); assay type: in vivo, BDF1 mice; settings: 12.0 mg./kg. 4× i.p., from the 2nd day; animals recovered/treated
Protocol: as §1, §2, §3, §4

[4] = system: NK/Ly ascites lymphoma; test: Antitumour activity, NK/Ly ascites lymphoma (Table 2); assay type: in vivo, CFLP mice; settings: from the 2nd day; for Recovery (90 day survival): animals recovered/treated
Protocol: as §1, §2, §3, §4

[5] = system: Ehrlich acites carcinoma; test: Antitumour activity, Ehrlich ascites carcinoma (Table 2); assay type: in vivo, CFLP mice; settings: 1.5 mg./kg. 4× i.p., from the 2nd day; animals recovered/treated
Protocol: as §1, §2, §3, §4

[6] = system: Rausher leukemia; test: Antitumour activity, Rauscher leukemia, spleen weight (Table 3); assay type: in vivo, CFLP mice; settings: 10.0 mg./kg. 6× i.p., from the 2nd day
Protocol: as §1, §2
(§5) In the case of solid tumours (Harding-Passey melanoma, S-180 and Yoshida sarcoma) the tumours were removed on the 8 to 14th day, and the inhibition was calculated by the weight of the tumours, using the following formula: [formula]
A similar method was applied in the case of the Rauscher leukemia too, but the weight of the spleen was taken, instead of the tumour, in the formula mentioned above.

[7] = system: Harding-Passey melanoma; test: Antitumour activity, Harding-Passey melanoma, tumour weight (Table 3); assay type: in vivo, CFLP mice; settings: from the 4th day after transplantation
Protocol: as §1, §2, §5

[8] = system: S-180 s.c. sarcoma; test: Antitumour activity, S-180 s.c. sarcoma, tumour weight (Table 3); assay type: in vivo, CFLP mice; settings: from the 2nd day
Protocol: as §1, §2, §5

[9] = system: Yoshida s.c. sarcoma; test: Antitumour activity, Yoshida s.c. sarcoma, tumour weight (Table 3); assay type: in vivo, CFY rats; settings: from the 2nd day
Protocol: as §1, §2, §5

[10] = system: Developed Yoshida s.c. sarcoma; test: Recovery from developed Yoshida s.c. sarcoma, treated on 6th day (Table 4); assay type: in vivo, CFY rats; settings: 50 mg./kg. 1× i.p. on 6th day; animals recovered/treated
Protocol: as §1, §2, §4

[11] = system: Ehrlich ascites carcinoma; test: Duration of activity: total cell number in Ehrlich ascites carcinoma; assay type: in vivo, Mice; settings: i.p. on the 6th day after transplantation, equitoxic doses
Protocol: (§6) Mice, being infected with Ehrlich ascites carcinoma, were treated intraperitoneally on the 6th day after transplantation with equitoxic doses of compounds 1, 2 and 6. The duration of the activity was investigated by determining the total cell number and the way of action by determining the mitosis index* and the thymidine index**. It could be shown that both compounds 1 and 2 inhibit the increase of the total cell number for 35 days, while a similar inhibition of the reference compound 6 lasts only for 17 days. As far as the quality of the activity is concerned, compounds 1 and 2 decrease the mitosis-index and the thymidine index in 24 hours by 90%, while in the case of compound 6 the decrease amounts only to 45 to 50%, and the maximum is reached on the 4th day.

[12] = system: Ehrlich ascites carcinoma; test: Way of activity: mitosis index in Ehrlich ascites carcinoma; assay type: in vivo, Mice; settings: in 24 hours; i.p. on 6th day, equitoxic doses
Protocol: as §6
*mitosis index=number of dividing cells/1000 tumour cells

[13] = system: Ehrlich ascites carcinoma; test: Way of activity: thymidine index (3H-thymidine incorporation into DNS) in Ehrlich ascites carcinoma; assay type: in vivo, Mice; settings: in 24 hours; i.p. on 6th day, equitoxic doses
Protocol: as §6
**thymidine index=^3 H-thymidine incorporation into the DNS of the tumour cell.

1,4-bis[3-(2-chloroethyl)-N-nitrosoureido]-1,4-dideoxy-D,L-threitol [Compound 1]
LD50 value i.p. ([1]; i.p.): 80 mg/kg
LD50 value p.o. ([1]; p.o.): 135 mg/kg
Increase in life span ([2]; 7.5 mg./kg. 1× i.p.): 45%
Recovery (90 day survival) ([2]; 7.5 mg./kg. 1× i.p.): 2/8
Increase in life span ([2]; 12.5 mg./kg. 1× p.o.): 23%
Recovery (90 day survival) ([2]; 12.5 mg./kg. 1× p.o.): 1/8
Increase in life span ([2]; 12.5 mg./kg. 3× p.o.): 30%
Recovery (90 day survival) ([2]; 12.5 mg./kg. 3× p.o.): 3/8
Increase in life span ([2]; 15.0 mg./kg. 1× i.p.): 29%
Recovery (90 day survival) ([2]; 15.0 mg./kg. 1× i.p.): 3/8
Increase in life span ([2]; 25.0 mg./kg. 1× p.o.): 111%
Recovery (90 day survival) ([2]; 25.0 mg./kg. 1× p.o.): 3/8
Recovery (90 day survival) ([2]; 25.0 mg./kg. 3× p.o.): 6/8
Increase in life span ([2]; 30.0 mg./kg. 1× i.p.): 230%
Recovery (90 day survival) ([2]; 30.0 mg./kg. 1× i.p.): 7/8
Increase in life span ([2]; 50.0 mg./kg. 1× p.o.): 84%
Recovery (90 day survival) ([2]; 50.0 mg./kg. 1× p.o.): 4/8
Recovery (90 day survival) [3]: 7/8
Recovery (90 day survival) ([4]; 1.5 mg./kg. "433" i.p.): 6/8
Recovery (90 day survival) ([4]; 3.0 mg./kg. 4× i.p.): 8/8
Increase in life span ([4]; 30.0 mg./kg. 4× p.o.): 89%
Recovery (90 day survival) ([4]; 30.0 mg./kg. 4× p.o.): 1/7
Recovery (90 day survival) [5]: 6/8
Inhibition (spleen weight) [6]: 78%
Inhibition (tumour weight) ([7]; 10.0 mg./kg. 5× p.o.): 96%
Inhibition (tumour weight) ([7]; 24.0 mg./kg. 1× i.p.): 81%
Inhibition (tumour weight) ([8]; 3.0 mg./kg. 2× i.p.): 43%
Inhibition (tumour weight) ([8]; 10.0 mg./kg. 4× p.o.): 42%
Inhibition (tumour weight) ([8]; 12.0 mg./kg. 4× i.p.): 80%
Inhibition (tumour weight) ([9]; 12 mg./kg. 4× i.p.): 99%
Inhibition (tumour weight) ([9]; 24 mg./kg. 1× i.p.): 76%
Recovery (90 day survival) [10]: 5/7
Duration of inhibition of the increase of the total cell number [11]: 35 days
Decrease of the mitosis-index [12]: 90%
Decrease of the thymidine index [13]: 90%
